Test results taken from patent US20220251141A1, “IMMUNOMODULATORS” (Bristol-Myers Squibb Company, priority 2019, published 2022).
pIC50: −log10 of the molar value. Bridge positions count the residues as written; N and C are the ends. Square brackets hold non-standard residues; d marks the D form. Peptide text beside a SMILES is read from it. * marks the point of attachment. Trp(1-CH2COOH) = N[C@@H](Cc1cn(CC(=O)O)c2ccccc12)C(=O)O; Trp(1-Me) = Cn1cc(C[C@H](N)C(=O)O)c2ccccc21; Phe(4-F) = N[C@@H](Cc1ccc(F)cc1)C(=O)O; Hyp = O=C(O)[C@@H]1C[C@@H](O)CN1; NMeNle = CCCC[C@H](NC)C(=O)O; NMeC = CN[C@@H](CS)C(=O)O; Pip = O=C(O)[C@@H]1CCCCN1; Dab = NCC[C@H](N)C(=O)O; Dap = NC[C@H](N)C(=O)O; Piv = CC(C)(C)C(=O)*

Target: T1, PD-1/PD-L1 (Homo sapiens, UniProt Q9NZQ7)
T1 construct: TVMV protease site linker (C); made in house; host or cells: HEK293T cells
Assay: PD-1/PD-L1 Homogenous Time-Resolved Fluorescence (HTRF) binding assay
Conditions: PD-L1-His 10 nM final, PD-1-Ig 20 nM final; inhibitors pre-incubated with PD-L1-His for 15 m
Outline: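 Compounds pre-incubated 15 min with human PD-L1(18-239)-His (10 nM final), then PD-1(25-167)-Ig (20 nM final) added for 15 min, in dPBS with 0.1% BSA and 0.05% Tween-20. Eu-cryptate anti-Ig (1 nM) and APC anti-His (20 nM) added, 30 min equilibration, 665/620 nm ratio read; IC50 reported.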

pIC50	SMILES
7.15	CCCC[C@H]1C(=O)N(C)[C@@H](CCCC)C(=O)N[C@@H](CCC(=O)O)C(=O)N[C@H](C(N)=O)CSCC(=O)N[C@@H](Cc2ccc(F)cc2)C(=O)N2CCCC[C@H]2C(=O)N[C@@H](CC(=O)O)C(=O)N2CCC[C@H]2C(=O)N[C@@H](CNC(=O)C(C)(C)C)C(=O)N[C@@H](CC(C)C)C(=O)N2C[C@H](O)C[C@H]2C(=O)N[C@@H](Cc2c[nH]c3ccccc23)C(=O)N[C@@H](CCNC(=O)C(C)(C)C)C(=O)N[C@@H](Cc2cn(C)c3ccccc23)C(=O)N1C [Example 20290] ({CH2CO}-[Phe(4-F)][Pip]DP[Dap](Piv)L[Hyp]W[Dab](Piv)[Trp(1-Me)][NMeNle][NMeNle]EC-NH2; thioether N-14)
7.42	CCCC[C@H]1C(=O)N(C)[C@@H](CCCC)C(=O)N[C@@H](CC(C)C)C(=O)N[C@H](C(N)=O)CSCC(=O)N[C@@H](Cc2ccc(F)cc2)C(=O)N2CCCC[C@H]2C(=O)N[C@@H](CC(N)=O)C(=O)N2CCC[C@H]2C(=O)N[C@@H](CNC(=O)C(C)(C)C)C(=O)N[C@@H](CC(C)C)C(=O)N2C[C@H](O)C[C@H]2C(=O)N[C@@H](Cc2c[nH]c3ccccc23)C(=O)N[C@@H](CCN)C(=O)N[C@@H](Cc2cn(CC(=O)O)c3ccccc23)C(=O)N1C [Example 20300] ({CH2CO}-[Phe(4-F)][Pip]NP[Dap](Piv)L[Hyp]W[Dab][Trp(1-CH2COOH)][NMeNle][NMeNle]LC-NH2; thioether N-14)
7.74	CCCC[C@H]1C(=O)N(C)[C@@H](CCCC)C(=O)N[C@@H](CC(C)C)C(=O)N(C)[C@H](C(N)=O)CSCC(=O)N[C@@H](Cc2ccc(F)cc2)C(=O)N2CCCC[C@H]2C(=O)N[C@@H](CC(=O)N(C)C)C(=O)N2CCC[C@H]2C(=O)N[C@@H](CNC(=O)C(C)(C)C)C(=O)N[C@@H](CC(C)C)C(=O)N2C[C@H](O)C[C@H]2C(=O)N[C@@H](Cc2c[nH]c3ccccc23)C(=O)N[C@@H](CO)C(=O)N[C@@H](Cc2cn(CC(=O)O)c3ccccc23)C(=O)N1C [Example 20310] ({CH2CO}-[Phe(4-F)][Pip]D(NMe2)P[Dap](Piv)L[Hyp]WS[Trp(1-CH2COOH)][NMeNle][NMeNle]L[NMeC]-NH2; thioether N-14)
